Reference: patent publication US12023319B2, “Carboxylic acid aromatic amides” (priority 2016, dated 2024)

target: T1, human Bradykinin B1 receptor (Homo sapiens, UniProt P46663); assay: Calcium flux assay (FLIPR), CHO-K1 cells expressing human Bradykinin B1 receptor, absence of 0.1% BSA (hB1 free IC50); assay type: cell-based; details: absence of 0.1% BSA in assay buffer
T1 construct: host or cells: CHO-K1
T1 sequence (P46663 1-353): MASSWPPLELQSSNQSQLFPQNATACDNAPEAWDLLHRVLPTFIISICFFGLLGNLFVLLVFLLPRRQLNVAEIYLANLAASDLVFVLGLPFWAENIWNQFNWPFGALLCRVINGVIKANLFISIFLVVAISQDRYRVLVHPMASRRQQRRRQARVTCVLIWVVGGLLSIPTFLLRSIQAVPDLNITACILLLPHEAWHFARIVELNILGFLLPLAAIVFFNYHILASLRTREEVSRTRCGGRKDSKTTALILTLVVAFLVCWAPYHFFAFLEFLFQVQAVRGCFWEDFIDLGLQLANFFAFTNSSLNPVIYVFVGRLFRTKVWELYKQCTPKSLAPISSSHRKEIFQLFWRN
Procedure, shortened: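 Peak FLIPR fluorescence (538 nm) after B1 agonist peptide addition gave IC50s, scaled between DMSO and full block by 20 µM Lys-(Des-Arg-Leu)-Bradykinin. Compounds were preincubated 30 min at 28° C with calcium-dye-loaded CHO-K1 cells expressing human B1, at 8 concentrations in triplicate, 1% DMSO final.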

Structure (SMILES) | IC50
O=C(O)c1cc(NC(=O)C2(c3ccc(OC(F)(F)F)cc3F)CC2)ccc1-c1cnn(C2CCCCC2)c1 [Example 123, 2-(1-Cyclohexyl-1H-pyrazol-4-yl)-5-[({1-[2-fluoro-4-(trifluoromethoxy)phenyl]cyclopropyl}carbonyl)amino]benzoic acid] | 22 nM
O=C(O)c1cc(NC(=O)C2(c3ccc(C(F)(F)F)cc3F)CC2)ccc1-c1cnn(C2CC2)c1 [Example 124, 2-(1-Cyclopropyl-1H-pyrazol-4-yl)-5-[({1-[2-fluoro-4-(trifluoromethyl)phenyl]cyclopropyl}carbonyl)amino]benzoic acid] | 200 nM
O=C(O)c1cc(NC(=O)C2(c3ccc(OC(F)(F)F)cc3F)CC2)ccc1-c1cnn(C2CC2)c1 [Example 125, 2-(1-Cyclopropyl-1H-pyrazol-4-yl)-5-[({1-[2-fluoro-4-(trifluoromethoxy)phenyl]cyclopropyl}carbonyl)amino]benzoic acid] | 170 nM
O=C(O)c1cc(NC(=O)C2(c3ccc(C(F)(F)F)cc3F)CC2)cc(F)c1-c1cnn(CC2CC2)c1 [Example 126, 2-[1-(Cyclopropylmethyl)-1H-pyrazol-4-yl]-3-fluoro-5-[({1-[2-fluoro-4-(trifluoromethyl)phenyl]cyclopropyl}carbonyl)amino]benzoic acid] | 14 nM
O=C(O)c1cc(NC(=O)C2(c3ccc(OC(F)(F)F)cc3F)CC2)cc(F)c1-c1cnn(CC2CC2)c1 [Example 127, 2-[1-(Cyclopropylmethyl)-1H-pyrazol-4-yl]-3-fluoro-5-[({1-[2-fluoro-4-(trifluoromethoxy)phenyl]cyclopropyl}carbonyl)amino]benzoic acid] | 11 nM
Cc1ccc(-c2c(F)cc(NC(=O)C3(c4ccc(C(F)(F)F)cc4F)CC3)cc2C(=O)O)cn1 [Example 128, 3-Fluoro-5-[({1-[2-fluoro-4-(trifluoromethyl)phenyl]cyclopropyl}carbonyl)amino]-2-(6-methylpyridin-3-yl)benzoic acid] | 37 nM
O=C(O)c1cc(NC(=O)C2(c3ccc(C(F)(F)F)cc3F)CC2)ccc1-n1cc(C2CCC2)cn1 [Example 129, 2-(4-Cyclobutyl-1H-pyrazol-1-yl)-5-[({1-[2-fluoro-4-(trifluoromethyl)phenyl]cyclopropyl}carbonyl)amino]benzoic acid] | 620 nM
O=C(O)c1cc(NC(=O)C2(c3ccc(OC(F)(F)F)cc3F)CC2)ccc1-n1cc(C2CCC2)cn1 [Example 130, 2-(4-Cyclobutyl-1H-pyrazol-1-yl)-5-[({1-[2-fluoro-4-(trifluoromethoxy)phenyl]cyclopropyl}carbonyl)amino]benzoic acid] | 590 nM
CC[C@H](C)n1cc(-c2ccc(NC(=O)C3(c4ccc(C(F)(F)F)cc4F)CC3)cc2C(=O)O)cn1 [Example 131, 2-{1-[(2S)-Butan-2-yl]-1H-pyrazol-4-yl}-5-[({1-[2-fluoro-4-(trifluoromethyl)phenyl]cyclopropyl}carbonyl)amino]benzoic acid] | 50 nM
CC[C@H](C)n1cc(-c2ccc(NC(=O)C3(c4ccc(OC(F)(F)F)cc4F)CC3)cc2C(=O)O)cn1 [Example 132, 2-{1-[(2S)-Butan-2-yl]-1H-pyrazol-4-yl}-5-[({1-[2-fluoro-4-(trifluoromethoxy)phenyl]cyclopropyl}carbonyl)amino]benzoic acid] | 56 nM
CC[C@@H](C)n1cc(-c2ccc(NC(=O)C3(c4ccc(C(F)(F)F)cc4F)CC3)cc2C(=O)O)cn1 [Example 133, 2-{1-[(2R)-Butan-2-yl]-1H-pyrazol-4-yl}-5-[({1-[2-fluoro-4-(trifluoromethyl)phenyl]cyclopropyl}carbonyl)amino]benzoic acid] | 59 nM
CC[C@@H](C)n1cc(-c2ccc(NC(=O)C3(c4ccc(OC(F)(F)F)cc4F)CC3)cc2C(=O)O)cn1 [Example 134, 2-{1-[(2R)-Butan-2-yl]-1H-pyrazol-4-yl}-5-[({1-[2-fluoro-4-(trifluoromethoxy)phenyl]cyclopropyl}carbonyl)amino]benzoic acid] | 44 nM
CC[C@H](C)n1cc(-c2c(F)cc(NC(=O)C3(c4ccc(C(F)(F)F)cc4F)CC3)cc2C(=O)O)cn1 [Example 135, 2-{1-[(2S)-Butan-2-yl]-1H-pyrazol-4-yl}-3-fluoro-5-[({1-[2-fluoro-4-(trifluoromethyl)phenyl]cyclopropyl}carbonyl)amino]benzoic acid] | 33 nM
CC[C@@H](C)n1cc(-c2c(F)cc(NC(=O)C3(c4ccc(C(F)(F)F)cc4F)CC3)cc2C(=O)O)cn1 [Example 136, 2-{1-[(2R)-Butan-2-yl]-1H-pyrazol-4-yl}-3-fluoro-5-[({1-[2-fluoro-4-(trifluoromethyl)phenyl]cyclopropyl}carbonyl)amino]benzoic acid] | 28 nM
Cn1cc(-c2c(F)cc(NC(=O)C3(c4ccc(OC(F)(F)F)cc4F)CC3)cc2C(=O)O)cn1 [Example 137, 3-Fluoro-5-[({1-[2-fluoro-4-(trifluoromethoxy)phenyl]cyclopropyl}carbonyl)amino]-2-(1-methyl-1H-pyrazol-4-yl)benzoic acid] | 70 nM
CCn1cc(-c2c(F)cc(NC(=O)C3(c4ccc(C(F)(F)F)cc4F)CC3)cc2C(=O)O)cn1 [Example 138, 2-(1-Ethyl-1H-pyrazol-4-yl)-3-fluoro-5-[({1-[2-fluoro-4-(trifluoromethyl)phenyl]cyclopropyl}carbonyl)amino]benzoic acid] | 18 nM
CCn1cc(-c2c(F)cc(NC(=O)C3(c4ccc(OC(F)(F)F)cc4F)CC3)cc2C(=O)O)cn1 [Example 139, 2-(1-Ethyl-1H-pyrazol-4-yl)-3-fluoro-5-[({1-[2-fluoro-4-(trifluoromethoxy)phenyl]cyclopropyl}carbonyl)amino]benzoic acid] | 13 nM
CC(C)n1cc(-c2c(F)cc(NC(=O)C3(c4ccc(Cl)cc4F)CC3)cc2C(=O)O)cn1 [Example 140, 5-({[1-(4-Chloro-2-fluorophenyl)cyclopropyl]carbonyl}amino)-3-fluoro-2-(1-isopropyl-1H-pyrazol-4-yl)benzoic acid] | 21 nM
O=C(O)c1cc(NC(=O)C2(c3ccccc3)CC2)cc(F)c1-c1cnn(C2CCC2)c1 [Example 141, 2-(1-Cyclobutyl-1H-pyrazol-4-yl)-3-fluoro-5-{[(1-phenylcyclopropyl)carbonyl]amino}benzoic acid] | 2800 nM
O=C(O)c1cc(NC(=O)C2(Cc3ccc(Cl)cc3)CC2)cc(F)c1-c1cnn(C2CCC2)c1 [Example 142, 5-({[1-(4-Chlorobenzyl)cyclopropyl]carbonyl}amino)-2-(1-cyclobutyl-1H-pyrazol-4-yl)-3-fluorobenzoic acid] | 3100 nM
Cn1cc(-c2c(F)cc(NC(=O)C3(c4ccc(C(F)(F)F)cc4F)CC3)cc2C(=O)O)cn1 [Example 143, 3-Fluoro-5-[({1-[2-fluoro-4-(trifluoromethyl)phenyl]cyclopropyl}carbonyl)amino]-2-(1-methyl-1H-pyrazol-4-yl)benzoic acid] | 78 nM
CC1CCC(C2(C(=O)Nc3cc(F)c(-c4cnn(C5CCC5)c4)c(C(=O)O)c3)CC2)CC1 (centres unmarked) [Example 145, 2-(1-Cyclobutyl-1H-pyrazol-4-yl)-3-fluoro-5-({[1-(4-methylcyclohexyl)cyclopropyl]carbonyl}amino)benzoic acid] | 160 nM
O=C(O)c1cc(NC(=O)C2(c3ccc(Cl)cc3F)CC2)ccc1-c1cnc(C2CCC2)s1 [Example 146, 5-({[1-(4-Chloro-2-fluorophenyl)cyclopropyl]carbonyl}amino)-2-(2-cyclobutyl-1,3-thiazol-5-yl)benzoic acid] | 3.7 nM
Cc1ccc(C2(C(=O)Nc3ccc(-c4cnc(C5CCC5)s4)c(C(=O)O)c3)CC2)c(F)c1 [Example 147, 2-(2-Cyclobutyl-1,3-thiazol-5-yl)-5-({[1-(2-fluoro-4-methylphenyl)cyclopropyl]carbonyl}amino)benzoic acid] | 13 nM
O=C(O)c1cc(NC(=O)C2(c3ccc(C(F)(F)F)cc3F)CC2)ccc1-c1cnc(C2CCC2)s1 [Example 148, 2-(2-Cyclobutyl-1,3-thiazol-5-yl)-5-[({1-[2-fluoro-4-(trifluoromethyl)phenyl]cyclopropyl}carbonyl)amino]benzoic acid] | 3.4 nM
O=C(O)c1cc(NC(=O)C2(c3ccc(OC(F)(F)F)cc3F)CC2)ccc1-c1cnc(C2CCC2)s1 [Example 149, 2-(2-Cyclobutyl-1,3-thiazol-5-yl)-5-[({1-[2-fluoro-4-(trifluoromethoxy)phenyl]cyclopropyl}carbonyl)amino]benzoic acid] | 3.2 nM
Cc1ccc(C2(C(=O)Nc3ccc(-c4cnn(C5CC5)c4)c(C(=O)O)c3)CC2)c(F)c1 [Example 150, 2-(1-Cyclopropyl-1H-pyrazol-4-yl)-5-({[1-(2-fluoro-4-methylphenyl)cyclopropyl]carbonyl}amino)benzoic acid] | 500 nM
CC1(Cn2cc(-c3ccc(NC(=O)C4(c5ccc(C(F)(F)F)cc5F)CC4)cc3C(=O)O)cn2)CC1 [Example 151, 5-[({1-[2-Fluoro-4-(trifluoromethyl)phenyl]cyclopropyl}carbonyl)amino]-2-{1-[(1-methylcyclopropyl)methyl]-1H-pyrazol-4-yl}benzoic acid] | 22 nM
CC1(Cn2cc(-c3ccc(NC(=O)C4(c5ccc(OC(F)(F)F)cc5F)CC4)cc3C(=O)O)cn2)CC1 [Example 152, 5-[({1-[2-Fluoro-4-(trifluoromethoxy)phenyl]cyclopropyl}carbonyl)amino]-2-{1-[(1-methylcyclopropyl)methyl]-1H-pyrazol-4-yl}benzoic acid] | 8.1 nM
